Experimental data: US6472348B1, “Pyridone derivatives and herbicides” (Kumiai Chemical Industry Co., Ltd., priority 1996, dated 2002)

Key:
Type in all cases: in vivo
soybean (Gl) = experiment: Test Example 6: crop plant selectivity by upland field soil treatment (soybean), phytotoxicity; design: scale not given here; conditions: 21st day after application
In short: (§1)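 Soybean and weed seeds were sown in sand-filled pots and covered with soil, then given a pre-emergence soil application. Plants were grown on in a greenhouse, and herbicidal effect and crop phytotoxicity were scored against a set rating scale 21 days after application.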

[1] = system: common lambsquarters (Ch); experiment: Test Example 6: crop plant selectivity by upland field soil treatment (soybean), herbicidal effects; design: scale not given here; conditions: 21st day after application
In short: as §1

China jute (Ab) [2] = experiment: as above; design: scale not given here; conditions: 21st day after application
In short: as §1

slender amaranth (Am) [3] = experiment: Test Example 7: crop plant selectivity by upland field soil treatment (corn), herbicidal effects; design: scale not given here; conditions: 21st day after application
In short: (§2)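 Corn and weed seeds were sown in sand-filled pots and covered with soil. After application, plants were grown in a greenhouse, and herbicidal effect and crop phytotoxicity were scored against fixed rating standards on day 21.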

[4] = system: common lambsquarters (Ch); experiment: as above; design: scale not given here; conditions: 21st day after application
In short: as §2

barnyardgrass (Ec) = experiment: Test Example 1: herbicidal effects by paddy field soil treatment; conditions: 100 g of the active ingredient per 10 ares, 21st day after the application, index 0-5 of Table 47;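 further: grade of growth control; 5 = at least 90%; 4 = 70 to 90%; 3 = 50 to 70%; 2 = 30 to 50%; 1 = 10 to 30%; 0 = under 10%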
In short: (§3)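 Herbicidal effect was scored against a graded standard 21 days after treatment. Seeds were sown in puddled, leveled paddy soil flooded to 3 cm depth, and the active ingredient was applied at 100 g per 10 ares before greenhouse culture.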

monochoria (Mo) = experiment: as above; conditions: 100 g of the active ingredient per 10 ares, 21st day after the application, index 0-5 of Table 47;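 further: grade of growth control; 5 = at least 90%; 4 = 70 to 90%; 3 = 50 to 70%; 2 = 30 to 50%; 1 = 10 to 30%; 0 = under 10%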
In short: as §3

bulrush (Sc) = experiment: as above; conditions: 100 g of the active ingredient per 10 ares, 21st day after the application, index 0-5 of Table 47;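 further: grade of growth control; 5 = at least 90%; 4 = 70 to 90%; 3 = 50 to 70%; 2 = 30 to 50%; 1 = 10 to 30%; 0 = under 10%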
In short: as §3

slender amaranth (Am) [5] = experiment: Test Example 9: crop plant selectivity by upland field foliage treatment (wheat), herbicidal effects; design: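 grade of growth control; 5 = at least 90%; 4 = 70 to 90%; 3 = 50 to 70%; 2 = 30 to 50%; 1 = 10 to 30%; 0 = under 10%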; conditions: dose 1.6 g ai/10a, 14th day after treatment
In short: (§4)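 Wheat and broadleaf weeds were sown together in sand-filled pots and grown for 2 weeks in a greenhouse before foliar treatment. Herbicidal effect on weeds and phytotoxicity to wheat were scored visually against set grading standards on day 14 after treatment, with plants kept in the greenhouse.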

pale smartweed (Po) = experiment: as above; design: scale not given here; conditions: dose 1.6 g ai/10a, 14th day after treatment
In short: as §4

[6] = system: common lambsquarters (Ch); experiment: as above; design: scale not given here; conditions: dose 1.6 g ai/10a, 14th day after treatment
In short: as §4

China jute (Ab) [7] = experiment: as above; design: scale not given here; conditions: dose 1.6 g ai/10a, 14th day after treatment
In short: as §4

Structure (SMILES)	Phytotoxicity Gl (soybean (Gl); dose 1.6 g ai/10a)	Phytotoxicity Gl (soybean (Gl); dose 6.3 g ai/10a)	Herbicidal effects Ch ([1]; dose 1.6 g ai/10a)	Herbicidal effects Ch ([1]; dose 6.3 g ai/10a)	Herbicidal effects Ab (China jute (Ab) [2]; dose 1.6 g ai/10a)	Herbicidal effects Ab (China jute (Ab) [2]; dose 6.3 g ai/10a)	Herbicidal effects Am (slender amaranth (Am) [3]; dose 1.6 g ai/10a)	Herbicidal effects Ch ([4]; dose 1.6 g ai/10a)	Herbicidal effects Ec (barnyardgrass (Ec))	Herbicidal effects Mo (monochoria (Mo))	Herbicidal effects Sc (bulrush (Sc))	Herbicidal effects Am (slender amaranth (Am) [3]; dose 6.3 g ai/10a)	Herbicidal effects Ch ([4]; dose 6.3 g ai/10a)	Herbicidal effects Am (slender amaranth (Am) [5])	Herbicidal effects Po (pale smartweed (Po))	Herbicidal effects Ch [6]	Herbicidal effects Ab (China jute (Ab) [7])
Cn1c(C(F)(F)F)ccc(-c2cc(Cl)c(Cl)cc2F)c1=O [1-136]	0	1	5	5	4	5	5	5	5	5	5	–	–	–	–	–	–
Cn1c(C(F)(F)F)ccc(-c2cc(OCC(F)(F)F)c(Cl)cc2F)c1=O [1-155]	0	0	5	5	5	5	5	5	5	5	5	5	5	–	–	–	–
Cn1c(C(F)(F)F)ccc(-c2cc(OCC3CC3)c(Cl)cc2F)c1=O [1-160]	–	1	–	5	–	5	–	–	5	5	5	5	5	5	5	5	5
C#CC(O)c1cc(-c2ccc(C(F)(F)F)n(C)c2=O)c(F)cc1Cl (centres unmarked) [Compound 1-202]	2	–	5	–	5	–	5	5	5	5	5	–	–	5	5	5	5
Cc1cc2c(-c3ccc(C(F)(F)F)n(C)c3=O)c(F)cc(Cl)c2o1 [Compound 4-1]	1	2	5	5	5	5	5	5	5	5	5	5	5	5	5	5	5
CCc1cc2c(-c3ccc(C(F)(F)F)n(C)c3=O)c(F)cc(Cl)c2o1 [Compound 4-2]	1	–	5	–	5	–	5	5	5	5	5	5	5	5	5	5	5
C#CCn1c(=O)sc2cc(F)c(-c3ccc(C(F)(F)F)n(C)c3=O)cc21 [Compound No. 3-1, 3-[6-fluoro-3-(2-propynyl)-benzothiazolin-2-on-5-yl]-1-methyl-6-trifluoromethyl-2(1H)-pyridone]	–	1	–	5	–	5	5	5	5	5	5	5	5	–	–	–	–
Cn1cc(-c2cc(Oc3ccccc3)c(Cl)cc2F)c(=O)cc1C(F)(F)F [Compound No. 6-19, 5-(4-chloro-2-fluoro-5-phenoxyphenyl)-1-methyl-2-trifluoromethyl-4(1H)-pyridone]	0	0	3	5	3	5	–	–	5	5	5	–	–	–	–	–	–
